{"source": "patent US7432264B2", "about": "“Antimicrobial biaryl compounds” (Isis Pharmaceuticals, Inc., priority 2000, dated 2008)", "key": {"[1]": {"molecular_target": "A1061 23S rRNA MS screening construct", "experiment": "Mass-spec binding assay (SAR by MS, ESI-FTICR-MS)", "set-up": "species or system E. coli", "description": "Binding affinity of test compounds to a 58 nucleotide fragment of E. coli 23S ribosomal RNA (23S rRNA) was determined using electrospray ionization Fourier transform ion cyclotron resonance mass spectrometry (ESI-FTICR-MS). The structure of the 23S rRNA fragment and its preparation is described by Conn et al (Science, 1999, 284(5417):1171) and Hinck et al (J. Mol. Biol., 1997, 274(1):101) both incorporated herein by reference. The mass spec assay determined the exact chemical composition of ligands that bound to the target rRNA and determined relative or absolute dissociation (KD) of ligands for the target. In the first step of the assay, a mixture of 23S rRNA target and test compound were moved from solution into the gas phase by electrospray ionization. The FT-ICR mass spectrometer served as a parallel set of “scales”, simultaneously measuring the exact molecular masses of the small molecules that bound to the RNA with great accuracy. The mass measurement error for an RNA-ligand complex weighing 10 kDa equals the mass of an electron. At this level of mass accuracy, each compound in the mixture was “labeled” by its molecular formula and exact molecular mass. […]"}, "[2]": {"test_system": "E. coli S30 bacterial extract (protein synthesis)", "format": "biochemical", "conditions": "34 versus 26", "description": "Coupled Bacterial Transcription/Translation Assay. The DNA template, pBestLuc™ (Promega), is a plasmid containing a reporter gene for firefly luciferase fused to a strong tac promoter and ribosome binding site. Messenger RNA from 1 μg pBestLuc was transcribed and translated in E. coli S30 bacterial extract in the presence or absence of test compound. Compounds were tested in a black 96 well microtiter plate with an assay volume of 35 μL. Each test well contained: 5 μL test compound, 13 μL S30 premix (Promega), 4 μL 10× complete amino acid mix (1 mM each), 5 μL E. coli S30 extract and 8 μL of […] pBestLuc™. The transcription/translation reaction was incubated for 35 minutes at 37° C. followed by detection of functional luciferase with the addition of 30 μL LucLite™ (Packard). Light output was quantitated on a Packard TopCount."}, "E. coli ATCC 25922": {"test_system": "E. coli ATCC 25922", "experiment": "Minimum inhibitory concentration (MIC), E. coli", "format": "cell-based, Escherichia coli", "description": "(§1) Bacterial Strains. The Streptococcus pyogenes strains, Klebsiella pneumoniae, Escherichia coli, Staphylococcus aureus, Enterococcus faecalis used in the antibacterial activity studies ATCC 14289, 49399, 13883, 25922, 13709, 29212, respectively, are obtained from the American Type Culture Collection, Rockville, Md. The strain E. coli imp— is a mutant strain of wild type E. coli with increased outer membrane permeability and was grown in LB broth at 37 °C. S. pyogenes strain is grown in Todd-Hewitt broth. S. aureus is grown in trypticase soy broth, E. faecalis in Todd-Hewitt broth, wild type E. coli and K. pneumoniae, in nutrient broth.\n(§2) Determination of Minimum Inhibitory Concentrations (MICs). The assays were carried out in […] volume in duplicate in 96-well clear flat-bottom plates. The bacterial suspension from an overnight culture growth in appropriate medium was added to a solution of test compound in 4% DMSO in water. Final bacterial inoculum was approximately 10^5-10^6 CFU/well. The percent growth of the bacteria in test wells relative to that observed for a well containing no compound was determined by measuring absorbance at 595 nm (A595) after 24 h. […] Both ampicillin and tetracycline is used as antibiotic-positive controls in each screening assay for S. pyogenes, E. coli imp-, E. coli, S. aureus, E. faecalis, K pneumoniae and P. vulgaris. Ciprofloxacin is used as an antibiotic positive control in each screening assay for P. aeruginosa."}, "S. aureus ATCC 13709": {"test_system": "S. aureus ATCC 13709", "experiment": "Minimum inhibitory concentration (MIC), S. aureus", "format": "cell-based, Staphylococcus aureus", "description": "as §1, §2"}, "E. faecalis ATCC 29212": {"test_system": "E. faecalis ATCC 29212", "experiment": "MIC, Enterococcus faecalis", "format": "cell-based", "description": "as §1\nas §2, with “Ciprofloxacin is used as an antibiotic positive control in each screening assay for P. aeruginosa.” left out"}, "S. pyogenes ATCC 49399": {"test_system": "S. pyogenes ATCC 49399", "experiment": "MIC, Streptococcus pyogenes", "format": "cell-based", "description": "as §1\nas §2, with “Ciprofloxacin is used as an antibiotic positive control in each screening assay for P. aeruginosa.” left out"}, "K pneumoniae ATCC 13383": {"test_system": "K pneumoniae ATCC 13383", "experiment": "MIC, Klebsiella pneumoniae", "format": "cell-based", "description": "as §1\nas §2, with “Ciprofloxacin is used as an antibiotic positive control in each screening assay for P. aeruginosa.” left out"}, "P. vulgaris ATCC 8427": {"test_system": "P. vulgaris ATCC 8427", "experiment": "MIC, Proteus vulgaris", "format": "cell-based", "description": "as §2"}, "[3]": {"test_system": "methicillin resistant S. aureus ATCC43300", "experiment": "MIC, methicillin-resistant S. aureus", "format": "cell-based, Staphylococcus aureus", "description": "as §2"}, "[4]": {"test_system": "eukaryotic protein synthesis", "experiment": "Eukaryotic protein synthesis, cell-free assay", "format": "biochemical", "conditions": "at 200:M", "from_the_text": "The biphenyl substitution improves in vitro antibacterial […] 4-fold compared to the phenyl substitution (34 versus 26). […] Biaryl 34 was selected to be evaluated against some additional bacterial strains. […] See Kung, P.-P.; Casper, M. D.; Cook, K. L.; Wilson-Lingardo, L.; Risen, L. M.; Vickers, T. A.; Ranken, R.; Blyn, L. B.; Wyatt, J. R.; Cook, P. D.; Ecker, D. J. J. Med. Chem. 1999, 42, 4705-4713."}}, "data": [{"smiles": "NCC[C@@H](NC(=O)c1ccco1)C(=O)N1CCNCC1", "values": [{"measurement": "Kd", "setting": "[1]", "value": 50, "unit": "µM"}]}, {"smiles": "CN(C)CCCOc1ccc(C(NC(=O)c2ccc(-c3cccc(NC(=O)c4ccc(-c5ccccc5)cc4)c3)o2)C(=O)N2CCNCC2)cc1", "note": "(stereo not drawn) [Compound 34]", "values": [{"measurement": "fold improvement compared to the phenyl substitution (26)", "setting": "[2]", "value": 4, "unit": "fold"}, {"measurement": "MIC E. coli", "setting": "E. coli ATCC 25922; E. coli ATCC 25922", "value": "6-13 :M"}, {"measurement": "MIC", "setting": "E. coli ATCC 25922; Escherichia coli, ATCC25922, 24 h, read-out: MIC (E. coli)", "value": "6 to 13", "unit": "mM"}, {"measurement": "MIC S. aureus", "setting": "S. aureus ATCC 13709; S. aureus ATCC 13709", "value": "3-6 :M"}, {"measurement": "MIC", "setting": "S. aureus ATCC 13709; Staphylococcus aureus, ATCC13709, 24 h, read-out: MIC (S. aureus)", "value": "6 to 13", "unit": "mM"}, {"measurement": "MIC Enterococcus faecalis", "setting": "E. faecalis ATCC 29212", "value": "3-6 :M"}, {"measurement": "MIC Streptococcus pyogenes", "setting": "S. pyogenes ATCC 49399", "value": "3-6 :M"}, {"measurement": "MIC Klebsiella pneumoniae", "setting": "K pneumoniae ATCC 13383", "value": "13-25 :M"}, {"measurement": "MIC Proteus vulgaris", "setting": "P. vulgaris ATCC 8427", "value": "50-100 :M"}, {"measurement": "MIC methicillin-resistant S. aureus strain", "setting": "[3]", "value": "13-25 :M"}, {"measurement": "inhibition of eukaryotic protein synthesis", "setting": "[4]", "value": "not to inhibit"}]}]}
